One experiment deals with G551D (Homo sapiens, UniProt P13569, G551D). As to conditions: G551D patients; cited from earlier work.
The next experiment addresses F508del (Homo sapiens (Human), UniProt P13569, DEL508-508). The note with it: F508del homozygote patients; cited from earlier work.
The target in a further experiment is CFTR (Homo sapiens, UniProt P13569). Put plainly: Ussing Chamber Electrophysiology Assay of CFTR Potentiation in CF Bronchial Epithelial Cells. As to conditions: primary CF hBE cells, short-circuit current, scaled to DMSO (0%) and positive control potentiator (100%). It counts as cell-based. From the text: Ussing Chamber Electrophysiology Assay of CFTR Potentiation in CF Bronchial Epithelial Cells
Primary cystic fibrosis human bronchial epithelial (CF hBE) cells were expanded and cultured according to published methods (Neuberger et al., Ch. 4 of Cystic Fibrosis, Methods in Molecular Biology vol. 741, pp. 39-54 (2011)). Well-differentiated cells (>30 days at air/liquid interface) on Snapwell filters (Corning Costar, cat. no. 3801) were mounted in Ussing chambers (Physiologic Instruments, Inc., San Diego, Calif.). F508del/F508del cultures were assayed at 27° C. and G551D/F508del cells were assayed at 35° C. HEPES buffered physiological saline (composition (in mM): 137 NaCl, 4 KCl, 1 MgCl2, 1.8 CaCl2, 10 HEPES Na) was used in both apical and basolateral chambers. Chambers were bubbled with air to promote mixing and the voltage was clamped to zero. Amiloride (30 uM), forskolin (10 uM), test compound (4 increasing concentrations), and CFTRinh-172 (20 uM) were added sequentially with 20-25 minutes between additions. Short-circuit currents were acquired and analyzed using LabScribe2. Test compound responses were scaled relative to responses for DMSO (0%) and the maximal response of a positive control potentiator (100%).

The next experiment has as its target F508del V470 CFTR (Homo sapiens, UniProt P13569, DEL508-508). Put plainly: FRT Ion Flux Assay of F508del CFTR Potentiation. The experiment is classed as cell-based. The note with it: FRT cells expressing F508del V470 CFTR and halide-sensitive YFP, forskolin 20 uM, 30 min. The protocol:
FRT Ion Flux Assay of F508del CFTR Potentiation
Fischer rat thyroid (FRT) cell lines stably expressing recombinant F508del V470 CFTR and halide-sensitive yellow fluorescent protein (Pedemonte et al., J. Clin. Invest. 115(9) 2564-71 (2005)) were seeded at 25,000 cells/well in 50 uL/well of culture medium into black-walled, clear bottom tissue-culture-treated 384-well plates (Corning, cat. no. 3712). After one day, the cells were pre-incubated at 27° C./5% CO2 for 16-24 hours. The cells were then washed with dPBS and treated with forskolin (20 uM) and test compound for 30 min by addition of 20 uL of compound dilution buffer (dPBS containing forskolin and test compound). Plates were loaded into FLIPR384 fluorescence imaging plate reader (Molecular Devices). After an initial fluorescence reading, iodide buffer (25 uL) (composition (in mM): 137 NaI, 1.5 K2PO4, 8.1 NaH2PO4, 2.7 KCl, 0.5 MgCl2, 1 CaCl2) was added and a second fluorescence reading was made after approximately 21 seconds. Data treatment involved division of the second fluorescence reading by the initial fluorescence reading, then scaling of the resulting normalized endpoint fluorescence with respect to the responses for DMSO (0%) and a positive control potentiator (100%).

F508del V470 CFTR, sequence (P13569 with tags, fused parts or gaps DEL508-508): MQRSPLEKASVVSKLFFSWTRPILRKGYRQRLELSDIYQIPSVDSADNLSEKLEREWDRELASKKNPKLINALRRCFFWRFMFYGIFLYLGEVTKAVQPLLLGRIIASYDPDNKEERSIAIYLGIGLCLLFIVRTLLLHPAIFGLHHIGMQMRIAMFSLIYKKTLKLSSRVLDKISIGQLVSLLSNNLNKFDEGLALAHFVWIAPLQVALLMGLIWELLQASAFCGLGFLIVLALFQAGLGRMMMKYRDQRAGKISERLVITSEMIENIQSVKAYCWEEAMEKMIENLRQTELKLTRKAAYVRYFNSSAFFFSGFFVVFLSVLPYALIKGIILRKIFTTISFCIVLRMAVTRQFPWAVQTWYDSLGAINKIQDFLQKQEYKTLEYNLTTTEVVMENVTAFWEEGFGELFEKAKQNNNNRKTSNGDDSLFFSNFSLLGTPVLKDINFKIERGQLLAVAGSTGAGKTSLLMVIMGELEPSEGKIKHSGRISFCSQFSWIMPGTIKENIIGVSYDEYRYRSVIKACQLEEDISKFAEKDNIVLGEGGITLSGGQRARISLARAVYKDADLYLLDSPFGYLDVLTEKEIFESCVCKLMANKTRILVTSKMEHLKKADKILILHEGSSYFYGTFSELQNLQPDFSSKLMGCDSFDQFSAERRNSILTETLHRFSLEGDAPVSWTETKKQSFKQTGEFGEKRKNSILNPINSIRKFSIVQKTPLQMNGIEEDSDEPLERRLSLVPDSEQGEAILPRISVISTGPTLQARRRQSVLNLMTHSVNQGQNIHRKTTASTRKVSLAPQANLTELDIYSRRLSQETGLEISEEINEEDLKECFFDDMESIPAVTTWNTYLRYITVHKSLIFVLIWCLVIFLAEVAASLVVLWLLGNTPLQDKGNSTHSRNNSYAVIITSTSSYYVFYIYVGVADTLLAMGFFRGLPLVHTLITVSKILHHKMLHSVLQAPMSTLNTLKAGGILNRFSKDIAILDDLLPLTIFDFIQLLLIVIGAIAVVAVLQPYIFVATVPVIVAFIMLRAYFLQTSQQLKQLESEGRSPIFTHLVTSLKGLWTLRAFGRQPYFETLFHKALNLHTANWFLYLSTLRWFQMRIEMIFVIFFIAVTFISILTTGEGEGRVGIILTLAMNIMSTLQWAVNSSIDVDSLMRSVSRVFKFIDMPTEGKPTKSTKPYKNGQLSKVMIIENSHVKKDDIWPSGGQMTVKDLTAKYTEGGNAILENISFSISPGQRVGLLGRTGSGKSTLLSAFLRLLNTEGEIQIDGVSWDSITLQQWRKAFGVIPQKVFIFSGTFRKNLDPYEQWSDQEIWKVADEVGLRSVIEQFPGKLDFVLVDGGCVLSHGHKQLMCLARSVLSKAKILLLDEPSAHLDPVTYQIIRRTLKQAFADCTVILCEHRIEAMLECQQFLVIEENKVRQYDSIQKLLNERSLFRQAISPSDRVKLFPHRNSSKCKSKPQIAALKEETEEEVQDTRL
F508del, sequence (P13569 other isoform, or with tags, fused parts or gaps del F508-F508): as the sequence (P13569 with tags, fused parts or gaps DEL508-508) above

Take `CC(C)(C)c1cc(C(C)(C)C)c(NC(=O)c2c[nH]c3ccccc3c2=O)cc1O` [Kalydeco®, ivacaftor]: the “percent predicted FEV1 increased” value on G551D is 10-13%. Besides, the improvement with monotherapy entry at F508del is “did not lead to any appreciable improvement”.
As a reminder, the EC50 is the concentration needed to bring the measured effect to its halfway point. Take `CC(c1cnn(-c2ccccc2F)c1)c1c(C#N)c(-c2cnc(C(F)(F)F)nc2)c2c(N)ncnn12` (single isomer, unassigned) [Example 12, 4-amino-7-{1-[1-(2-fluorophenyl)-1H-pyrazol-4-yl]ethyl}-5-[2-(trifluoromethyl)pyrimidin-5-yl]pyrrolo[2,1-f][1,2,4]triazine-6-carbonitrile]: the values for the EC50 on CFTR and at F508del V470 CFTR were 4 nM and 12.5 nM, respectively.
The matching figures for `CCC(c1cn(-c2ccccc2F)nn1)c1cc(-c2cnc(C(F)(F)F)nc2)c2c(N)ncnn12` (single isomer, unassigned) [Example 58, 7-{1-[1-(2-fluorophenyl)-1H-1,2,3-triazol-4-yl]propyl}-5-[2-(trifluoromethyl)pyrimidin-5-yl]pyrrolo[2,1-f][1,2,4]triazin-4-amine]: 36.6 nM and 91.2 nM.
With `CCC(c1cnn(-c2ccccc2F)c1)c1c(C#N)c(-c2cnc(C(F)(F)F)nc2)c2c(N)ncnn12` (single isomer, unassigned) [Example 14, 4-amino-7-{1-[1-(2-fluorophenyl)-1H-pyrazol-4-yl]propyl}-5-[2-(trifluoromethyl)pyrimidin-5-yl]pyrrolo[2,1-f][1,2,4]triazine-6-carbonitrile], the EC50 came out at 2 nM on CFTR and 6.59 nM on F508del V470 CFTR.
For `CCC(c1cn(-c2ccc(F)c(F)c2)nn1)c1cc(-c2cnc(C(F)(F)F)nc2)c2c(N)ncnn12` (single isomer, unassigned) [Example 63, 7-{1-[1-(3,4-difluorophenyl)-1H-1,2,3-triazol-4-yl]propyl}-5-[2-(trifluoromethyl)pyrimidin-5-yl]pyrrolo[2,1-f][1,2,4]triazin-4-amine] the same measures were 19.3 nM and 29.6 nM.
The matching figures for `CCC(c1cnn(-c2ccc(F)cc2F)c1)c1c(C#N)c(-c2cnc(C(F)(F)F)nc2)c2c(N)ncnn12` (single isomer, unassigned) [Example 17, 4-amino-7-{1-[1-(2,4-difluorophenyl)-1H-pyrazol-4-yl]propyl}-5-[2-(trifluoromethyl)pyrimidin-5-yl]pyrrolo[2,1-f][1,2,4]triazine-6-carbonitrile]: 3 nM and 13.3 nM.
For `CC(c1cn(-c2cc(F)ccc2F)nn1)c1cc(-c2cnc(C(F)(F)F)nc2)c2c(N)ncnn12` (single isomer, unassigned) [Example 98, 7-{1-[1-(2,5-difluorophenyl)-1H-1,2,3-triazol-4-yl]ethyl}-5-[2-(trifluoromethyl)pyrimidin-5-yl]pyrrolo[2,1-f][1,2,4]triazin-4-amine] the same measures were 19.8 nM and 26 nM.
Regarding `CCC(c1cn(-c2cc(F)ccc2F)nn1)c1cc(-c2cnc(C(F)(F)F)nc2)c2c(N)ncnn12` (single isomer, unassigned) [Example 62, 7-{1-[1-(2,5-difluorophenyl)-1H-1,2,3-triazol-4-yl]propyl}-5-[2-(trifluoromethyl)pyrimidin-5-yl]pyrrolo[2,1-f][1,2,4]triazin-4-amine], the EC50 on CFTR was found to be 9.95 nM; at F508del V470 CFTR, 17.6 nM.
For `CCC(c1cn(-c2ccc(F)cc2F)nn1)c1cc(-c2cnc(C(F)(F)F)nc2)c2c(N)ncnn12` (single isomer, unassigned) [Example 60, 7-{1-[1-(2,4-difluorophenyl)-1H-1,2,3-triazol-4-yl]propyl}-5-[2-(trifluoromethyl)pyrimidin-5-yl]pyrrolo[2,1-f][1,2,4]triazin-4-amine] the same measures were 2 nM and 3.36 nM.
For `CC(O)(c1cn(-c2ccccc2F)nn1)c1cc(-c2cnc(C(F)(F)F)nc2)c2c(N)ncnn12` (single isomer, unassigned) [Example 67, 1-{4-amino-5-[2-(trifluoromethyl)pyrimidin-5-yl]pyrrolo[2,1-f][1,2,4]triazin-7-yl}-1-[1-(2-fluorophenyl)-1H-1,2,3-triazol-4-yl]ethanol] the same measures were 147 nM and 50.5 nM.
Consider `CCC(c1cn(-c2ccccc2F)nn1)n1nc(-c2cnc(C(F)(F)F)nc2)c2c(N)ncnc21` (single isomer, unassigned) [Example 89, 1-{1-[1-(2-fluorophenyl)-1H-1,2,3-triazol-4-yl]propyl}-3-[2-(trifluoromethyl)pyrimidin-5-yl]-1H-pyrazolo[3,4-d]pyrimidin-4-amine], for which the values for the EC50 at CFTR and on F508del V470 CFTR were 189 nM and 219 nM, respectively.
Consider `CCC(c1cnn(-c2ccccc2F)c1)n1nc(-c2cnc(C(F)(F)F)nc2)c2c(N)ncnc21` (single isomer, unassigned) [Example 87, 1-{1-[1-(2-fluorophenyl)-1H-pyrazol-4-yl]propyl}-3-[2-(trifluoromethyl)pyrimidin-5-yl]-1H-pyrazolo[3,4-d]pyrimidin-4-amine], for which the values for the EC50 on CFTR and at F508del V470 CFTR were 1.53 nM and 4.76 nM, respectively.
The matching figures for `CC(c1cn(-c2ccc(F)cc2F)nn1)c1c(C#N)c(-c2cnc(C(F)(F)F)nc2)c2c(N)ncnn12` (stereo not drawn) [Example 24, 4-amino-7-{1-[1-(2,4-difluorophenyl)-1H-1,2,3-triazol-4-yl]ethyl}-5-[2-(trifluoromethyl)pyrimidin-5-yl]pyrrolo[2,1-f][1,2,4]triazine-6-carbonitrile]: 20.9 nM and 28.7 nM.
The matching figures for `CC(c1cn(-c2ccccc2F)nn1)c1c(C#N)c(-c2cnc(C(F)(F)F)nc2)c2c(N)ncnn12` (single isomer, unassigned) [Example 1, 4-amino-7-{1-[1-(2-fluorophenyl)-1H-1,2,3-triazol-4-yl]ethyl}-5-[2-(trifluoromethyl)pyrimidin-5-yl]pyrrolo[2,1-f][1,2,4]triazine-6-carbonitrile]: 51.1 nM and 46.8 nM.
The matching figures for `CC(c1cn(-c2ccc(F)cc2F)nn1)c1cc(-c2cnc(C(F)(F)F)nc2)c2c(N)ncnn12` (single isomer, unassigned) [Example 56, 7-{1-[1-(2,4-difluorophenyl)-1H-1,2,3-triazol-4-yl]ethyl}-5-[2-(trifluoromethyl)pyrimidin-5-yl]pyrrolo[2,1-f][1,2,4]triazin-4-amine]: 7.48 nM and 8.76 nM.
Turning to `CC(c1cn(-c2ccccc2F)nn1)c1cc(-c2cnc(C(F)(F)F)nc2)c2c(N)ncnn12` (single isomer, unassigned) [Example 54, 7-{1-[1-(2-fluorophenyl)-1H-1,2,3-triazol-4-yl]ethyl}-5-[2-(trifluoromethyl)pyrimidin-5-yl]pyrrolo[2,1-f][1,2,4]triazin-4-amine], the EC50 at CFTR worked out at 6.48 nM; on F508del V470 CFTR, 7.4 nM.
For `CC(c1cn(-c2ccc(F)cc2F)nn1)c1c(C#N)c(-c2cnc(C(F)(F)F)nc2)c2c(N)ncnn12` (single isomer, unassigned) [Example 3, 4-amino-7-{1-[1-(2,4-difluorophenyl)-1H-1,2,3-triazol-4-yl]ethyl}-5-[2-(trifluoromethyl)pyrimidin-5-yl]pyrrolo[2,1-f][1,2,4]triazine-6-carbonitrile] the same measures were 14.6 nM and 10.6 nM.
The matching figures for `CCC(c1cn(-c2ccccc2F)nn1)c1cc(-c2cncnc2OC)c2c(N)ncnn12` (stereo not drawn) [Example 83, 7-{1-[1-(2-fluorophenyl)-1H-1,2,3-triazol-4-yl]propyl}-5-(4-methoxypyrimidin-5-yl)pyrrolo[2,1-f][1,2,4]triazin-4-amine]: 16 nM and 18.4 nM.

These data come from US10131670B2, “Bicyclic heteroaryl derivatives as CFTR potentiators” (CYSTIC FIBROSIS FOUNDATION THERAPEUTICS, INC., priority 2016, dated 2018).
